From patent US9464084B2, “P2X7 modulators” (Janssen Pharmaceutica NV, priority 2013, dated 2016)

biological target: P2X7 (Homo sapiens (Human), UniProt Q99572); test: P2X7 antagonism in human PBMCs (LPS + Bz-ATP induced IL-1β release, ELISA); type: cell-based; settings: compound 10 μM, LPS 30 ng/ml, Bz-ATP 0.5 mM;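 also: PBMCs from donor human blood, with a further 1.5 h incubation of the cells in the assay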
Sequence (Q99572 whole entry): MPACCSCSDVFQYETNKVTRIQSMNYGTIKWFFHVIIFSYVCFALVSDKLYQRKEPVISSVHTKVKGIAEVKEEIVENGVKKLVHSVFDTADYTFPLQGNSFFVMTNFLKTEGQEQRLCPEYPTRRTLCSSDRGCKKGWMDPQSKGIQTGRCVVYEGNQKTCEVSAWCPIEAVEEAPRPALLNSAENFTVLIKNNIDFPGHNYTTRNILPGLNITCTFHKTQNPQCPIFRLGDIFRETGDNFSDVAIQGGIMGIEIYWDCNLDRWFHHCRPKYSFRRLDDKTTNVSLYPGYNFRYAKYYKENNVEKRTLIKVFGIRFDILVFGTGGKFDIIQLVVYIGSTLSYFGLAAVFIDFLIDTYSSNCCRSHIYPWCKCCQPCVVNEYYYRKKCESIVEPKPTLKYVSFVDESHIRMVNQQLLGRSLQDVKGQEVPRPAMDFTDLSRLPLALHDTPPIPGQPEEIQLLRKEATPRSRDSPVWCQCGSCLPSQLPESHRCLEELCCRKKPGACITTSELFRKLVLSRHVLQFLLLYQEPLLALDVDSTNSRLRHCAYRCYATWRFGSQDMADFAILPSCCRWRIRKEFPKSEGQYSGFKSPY

Row | Compound | PBMC 10 μM (% control)
1 | C[C@@H]1c2nnn(-c3ncc(F)cn3)c2CCN1C(=O)c1cccc(C(F)(F)F)c1F (single isomer, unassigned) [Example 190, (R*)-(2-fluoro-3-(trifluoromethyl)phenyl)(1-(5-fluoropyrimidin-2-yl)-4-methyl-6,7-dihydro-1H-[1,2,3]triazolo[4,5-c]pyridin-5(4H)-yl)methanone] | 7.1
2 | C[C@@H]1c2ncn(-c3ncc(F)cn3)c2CCN1C(=O)c1cccc(C(F)(F)F)c1Cl (single isomer, unassigned) [Example 193, (R*)-(2-Chloro-3-(trifluoromethyl)phenyl)(1-(5-fluoropyrimidin-2-yl)-4-methyl-6,7-dihydro-1H-imidazo[4,5-c]pyridin-5(4H)-yl)methanone] | 1.4
3 | C[C@H]1c2ncn(-c3ncc(F)cn3)c2CCN1C(=O)c1cccc(C(F)(F)F)c1Cl (single isomer, unassigned) [Example 194, (S*)-(2-Chloro-3-(trifluoromethyl)phenyl)(1-(5-fluoropyrimidin-2-yl)-4-methyl-6,7-dihydro-1H-imidazo[4,5-c]pyridin-5(4H)-yl)methanone] | −12.8
4 | Cc1c(C(=O)N2CCc3c(nnn3-c3ncccn3)[C@@H]2C)cccc1C(F)(F)F (single isomer, unassigned) [Example 197, (S*)-(4-methyl-1-(pyrimidin-2-yl)-6,7-dihydro-1H-[1,2,3]triazolo[4,5-c]pyridin-5(4H)-yl)(2-methyl-3-(trifluoromethyl)phenyl)methanone] | 2.1
5 | C[C@@H]1Cc2c(nnn2-c2ncc(F)cn2)CN1C(=O)c1cccc(C(F)(F)F)c1Cl (single isomer, unassigned) [Example 201, (6R*)-5-{[2-Chloro-3-(trifluoromethyl)phenyl]carbonyl}-1-(5-fluoropyrimidin-2-yl)-6-methyl-4,5,6,7-tetrahydro-1H-[1,2,3]triazolo[4,5-c]pyridine] | 20.4
6 | C[C@H]1Cc2c(nnn2-c2ncc(F)cn2)CN1C(=O)c1cccc(C(F)(F)F)c1Cl (single isomer, unassigned) [Example 202, (6S*)-5-{[2-Chloro-3-(trifluoromethyl)phenyl]carbonyl}-1-(5-fluoropyrimidin-2-yl)-6-methyl-4,5,6,7-tetrahydro-1H-[1,2,3]triazolo[4,5-c]pyridine] | 24.1
7 | C[C@@H]1Cc2c(nnn2-c2ncc(F)cn2)CN1C(=O)c1cccc(Cl)c1Cl (single isomer, unassigned) [Example 204, (6R*)-5-[(2,3-Dichlorophenyl)carbonyl]-1-(5-fluoropyrimidin-2-yl)-6-methyl-4,5,6,7-tetrahydro-1H-[1,2,3]triazolo[4,5-c]pyridine] | 180.6
8 | C[C@H]1Cc2c(nnn2-c2ncc(F)cn2)CN1C(=O)c1cccc(Cl)c1Cl (single isomer, unassigned) [Example 205, (6S*)-5-[(2,3-Dichlorophenyl)carbonyl]-1-(5-fluoropyrimidin-2-yl)-6-methyl-4,5,6,7-tetrahydro-1H-[1,2,3]triazolo[4,5-c]pyridine] | 17.1
9 | Cc1c(C(=O)N2Cc3nnn(-c4ncc(F)cn4)c3C[C@H]2C)cccc1C(F)(F)F (single isomer, unassigned) [Example 207, (6R*)-1-(5-Fluoropyrimidin-2-yl)-6-methyl-5-{[2-methyl-3-(trifluoromethyl)phenyl]carbonyl}-4,5,6,7-tetrahydro-1H-[1,2,3]triazolo[4,5-c]pyridine] | 45.0
10 | Cc1c(C(=O)N2Cc3nnn(-c4ncc(F)cn4)c3C[C@@H]2C)cccc1C(F)(F)F (single isomer, unassigned) [Example 208, (6S*)-1-(5-Fluoropyrimidin-2-yl)-6-methyl-5-{[2-methyl-3-(trifluoromethyl)phenyl]carbonyl}-4,5,6,7-tetrahydro-1H-[1,2,3]triazolo[4,5-c]pyridine] | 20.9
11 | C[C@@H]1Cc2c(nnn2-c2cnccn2)CN1C(=O)c1cccc(C(F)(F)F)c1Cl (single isomer, unassigned) [Example 211, (6R*)-5-{[2-Chloro-3-(trifluoromethyl)phenyl]carbonyl}-6-methyl-1-pyrazin-2-yl-4,5,6,7-tetrahydro-1H-[1,2,3]triazolo[4,5-c]pyridine] | 28.5
12 | C[C@H]1Cc2c(nnn2-c2cnccn2)CN1C(=O)c1cccc(C(F)(F)F)c1Cl (single isomer, unassigned) [Example 212, (6S*)-5-{[2-Chloro-3-(trifluoromethyl)phenyl]carbonyl}-6-methyl-1-pyrazin-2-yl-4,5,6,7-tetrahydro-1H-[1,2,3]triazolo[4,5-c]pyridine] | 17.4

Now from value to compound:

Row | PBMC 10 μM (% control) | Compound
13 | 8.2 | C[C@@H]1Cc2c(nnn2-c2ncc(F)cn2)CN1C(=O)c1ccc(F)c(Cl)c1Cl (single isomer, unassigned) [Example 214, (6R*)-5-[(2,3-Dichloro-4-fluorophenyl)carbonyl]-1-(5-fluoropyrimidin-2-yl)-6-methyl-4,5,6,7-tetrahydro-1H-[1,2,3]triazolo[4,5-c]pyridine]
14 | 2.7 | C[C@H]1Cc2c(nnn2-c2ncc(F)cn2)CN1C(=O)c1ccc(F)c(Cl)c1Cl (single isomer, unassigned) [Example 215, (6S*)-5-[(2,3-Dichloro-4-fluorophenyl)carbonyl]-1-(5-fluoropyrimidin-2-yl)-6-methyl-4,5,6,7-tetrahydro-1H-[1,2,3]triazolo[4,5-c]pyridine]
15 | 60.8 | C[C@@H]1Cc2c(nnn2-c2ncc(F)cn2)CN1C(=O)c1ccc(Cl)c(F)c1Cl (single isomer, unassigned) [Example 217, (6R*)-5-[(2,4-Dichloro-3-fluorophenyl)carbonyl]-1-(5-fluoropyrimidin-2-yl)-6-methyl-4,5,6,7-tetrahydro-1H-[1,2,3]triazolo[4,5-c]pyridine]
16 | 103.3 | C[C@H]1c2n[nH]c(-c3ncc(F)cn3)c2CCN1C(=O)c1cccc(C(F)(F)F)c1Cl (single isomer, unassigned) [Example 224, (S*)-(2-chloro-3-(trifluoromethyl)phenyl)(3-(5-fluoropyrimidin-2-yl)-7-methyl-4,5-dihydro-2H-pyrazolo[3,4-c]pyridin-6(7H)-yl)methanone]
17 | 58.0 | Cc1cccc(-n2nnc3c2CCN(C(=O)c2cccc(C(F)(F)F)c2Cl)[C@@H]3C)n1 (single isomer, unassigned) [Example 226, (R*)-(2-chloro-3-(trifluoromethyl)phenyl)(4-methyl-1-(6-methylpyridin-2-yl)-6,7-dihydro-1H-[1,2,3]triazolo[4,5-c]pyridin-5(4H)-yl)methanone]
18 | 0.1 | C[C@H]1Cc2c(nnn2-c2ncc(F)cn2)CN1C(=O)c1ccnc(C(F)(F)F)c1F (single isomer, unassigned) [Example 228, (S*)-(3-fluoro-2-(trifluoromethyl)pyridin-4-yl)(1-(5-fluoropyrimidin-2-yl)-6-methyl-6,7-dihydro-1H-[1,2,3]triazolo[4,5-c]pyridin-5(4H)-yl)methanone]
19 | 116.4 | C[C@H]1c2nnn(-c3ncc(F)cn3)c2CCN1C(=O)c1ccnc(C(F)(F)F)c1F (single isomer, unassigned) [Example 229, (S*)-(3-fluoro-2-(trifluoromethyl)pyridin-4-yl)(1-(5-fluoropyrimidin-2-yl)-4-methyl-6,7-dihydro-1H-[1,2,3]triazolo[4,5-c]pyridin-5(4H)-yl)methanone]
20 | 86.9 | Cc1ccc(-n2nnc3c2CCN(C(=O)c2cccc(C(F)(F)F)c2Cl)[C@H]3C)nc1 (single isomer, unassigned) [Example 239, (S*)-(2-chloro-3-(trifluoromethyl)phenyl)(4-methyl-1-(5-methylpyridin-2-yl)-6,7-dihydro-1H-[1,2,3]triazolo[4,5-c]pyridin-5(4H)-yl)methanone]
21 | 74.3 | COCCn1ccc(-n2nnc3c2CCN(C(=O)c2cccc(C(F)(F)F)c2Cl)[C@@H]3C)n1 (single isomer, unassigned) [Example 248, (R*)-(2-Chloro-3-(trifluoromethyl)phenyl)(1-(1-(2-methoxyethyl)-1H-pyrazol-3-yl)-4-methyl-6,7-dihydro-1H-[1,2,3]triazolo[4,5-c]pyridin-5(4H)-yl)methanone]
22 | 5.1 | COCCn1ccc(-n2nnc3c2CCN(C(=O)c2cccc(C(F)(F)F)c2Cl)[C@H]3C)n1 (single isomer, unassigned) [Example 249, (S*)-(2-Chloro-3-(trifluoromethyl)phenyl)(1-(1-(2-methoxyethyl)-1H-pyrazol-3-yl)-4-methyl-6,7-dihydro-1H-[1,2,3]triazolo[4,5-c]pyridin-5(4H)-yl)methanone]
23 | 98.5 | C[C@H]1c2nnn(-c3ncccn3)c2CCN1C(=O)c1cccc(C(F)(F)F)c1F (single isomer, unassigned) [Example 270, (S*)-(2-fluoro-3-(trifluoromethyl)phenyl)(4-methyl-1-(pyrimidin-2-yl)-6,7-dihydro-1H-[1,2,3]triazolo[4,5-c]pyridin-5(4H)-yl)methanone]
24 | −7.1 | Cc1cccnc1-n1nnc2c1CCN(C(=O)c1cccc(C(F)(F)F)c1Cl)[C@@H]2C (single isomer, unassigned) [Example 291, (R*)-(2-chloro-3-(trifluoromethyl)phenyl)(4-methyl-1-(3-methylpyridin-2-yl)-6,7-dihydro-1H-[1,2,3]triazolo[4,5-c]pyridin-5(4H)-yl)methanone]
25 | 36.7 | Cc1cccnc1-n1nnc2c1CCN(C(=O)c1cccc(C(F)(F)F)c1Cl)[C@H]2C (single isomer, unassigned) [Example 292, (S*)-(2-chloro-3-(trifluoromethyl)phenyl)(4-methyl-1-(3-methylpyridin-2-yl)-6,7-dihydro-1H-[1,2,3]triazolo[4,5-c]pyridin-5(4H)-yl)methanone]
